Data taken from patent publication US20050137172A1, “Haloacetamide and azide substituted compounds and methods of use thereof” (priority 2003, published 2005).
Like-named read-outs stand apart in the source and are kept apart here.

Tests used:
LNCaP = experiment: Cell growth inhibition (sulforhodamine B assay); assay type: cell-based; conditions: Homo sapiens, read-out: IC50 LNCaP
Procedure: (§1) Prostate cancer cell lines were obtained from ATCC. All cells were grown in RPMI-1640 medium containing 2 mM L-glutamine supplemented with 10% fetal bovine serum (FBS) and maintained in a 5% CO2/95% air humidified atmosphere at 37° C.
(§2) Cells were plated on 96-well plates and incubated with drug-containing culture medium (200 μL/well) for 4 (DU 145, PC-3, PPC-1, and TSU) or 6 (LNCaP) days. Medium was replaced with freshly prepared batches every other day during the incubation. At the end of drug treatment, an aliquot of 50 μL of cold (4° C.) trichloroacetic acid (TCA, 50%) was gently layered on the top of growth medium in each well to make a final TCA concentration of 10%. The mixtures were incubated at 4° C. for 1 hour, and then washed 5 times with tap water to remove TCA, growth medium, low-molecular-weight metabolites, and serum proteins. The plates were air dried overnight. Next, fixed cells were stained with 50 μL of SRB solution (0.4%, wt/vol) for 10 minutes. After staining, SRB solution was decanted, and plates were quickly rinsed 5 times with 1% acetic acid to remove unbound dye and air dried overnight. The cellular protein-bound SRB was then dissolved with 200 μL unbuffered Tris base (10 mM, pH 10.5) for 30 minutes on a rocking platform shaker, and absorbance at 540 nm was measured by a plate reader.
(§3) Percentage of cell survival was calculated by absorbance at 540 nm in testing wells divided by absorbance in negative control wells (medium without the test compound). Percentages of cell survival versus drug concentrations were plotted and the concentration of drug that inhibited cell growth by 50% (IC50) was determined by nonlinear regression using WinNonlin (Pharsight Corporation, Mountain View, Calif.).
(§4) METHODS: LNCaP, DU145, PC-3, TSU, and PPC-1 cells were cultured in 96-well plates and treated with increasing concentrations of the compound of interest for 4 days. Cell survival was determined by the sulforhodamine B assay and was plotted as a percentage of control (drug-free wells) versus drug concentration. The concentration of drug that inhibited cell growth by 50% (IC50) was determined by nonlinear regression. Known anticancer drugs were used as cytotoxic positive controls.

TSU = experiment: Cell growth inhibition (sulforhodamine B assay); assay type: cell-based; conditions: Homo sapiens, 96 h, read-out: IC50 TSU
Procedure: as §1, §2, §3, §4

PC-3 = experiment: Cell growth inhibition (sulforhodamine B assay); assay type: cell-based; conditions: Homo sapiens, PC-3, 96 h, read-out: IC50 PC-3
Procedure: as §1, §2, §3, §4

DU145 = experiment: Cell growth inhibition (sulforhodamine B assay); assay type: cell-based; conditions: Homo sapiens, DU-145, 96 h, read-out: IC50 DU145
Procedure: as §1, §2, §3, §4

PPC-1 = experiment: Cell growth inhibition (sulforhodamine B assay); assay type: cell-based; conditions: Homo sapiens, PPC-1, 96 h, read-out: IC50 PPC-1
Procedure: as §1, §2, §3, §4

[1] = tested on: five prostate cancer cell lines; experiment: Cell growth inhibition (sulforhodamine B assay), all five lines together; assay type: cell-based, human; conditions: for IC50 values in inhibiting the growth of all of five prostate cancer cell lines: DU 145, PC-3, TSU, PPC-1, LNCaP; for IC50s from one-day treatment versus 4 or 6 days treatment: comparison of treatment durations
Procedure: as §1, §2, §3, §4

MCF-7 cells = experiment: Growth curve (trypan blue cell count, 120 h); assay type: cell-based; conditions: FIG. 2B
Procedure: (§5) MATERIALS: DMSO is the vehicle control and the solvent for Compound A and Compound B.
(§6) METHODS: Cells were plated at 5-10×10^4 cells/well in five 6-well plates and incubated at 37° C., 5% CO2 for 24 h to allow the cells sufficient time to attach and be in log phase growth at the start of the experiment. The media was aspirated from four of the plates and replaced with media containing vehicle control (DMSO) or drug dissolved in DMSO. The total volume of DMSO/drug added to each well was equal to 0.1% of the media volume in each well. LNCaP, PC-3, MCF-7, and CV-1 cells were treated with vehicle control, and increasing concentrations of Compound A and Compound B (0.01, 0.05, 0.1, 0.5, 1.0, 5.0, and 10.0 μM). Three wells were treated with the same concentration of the drugs or DMSO for each treatment condition listed above. The cells from the remaining 6-well plate were collected and counted to determine plating efficiency. The 6-well plates containing DMSO/drug were incubated for 120 h at 37° C., 5% CO2. After 120 h, the media from each well was collected along with trypsinized cells and centrifuged at 150×g for 4 min. The cells were resuspended in 1 mL of media, from which 90 μl was taken and combined with 10 μl trypan blue for counting on a hemacytometer.

LNCaP cells [2] = experiment: TUNEL assay (apoptosis, DNA fragmentation); assay type: cell-based, human; conditions: LNCaP cells exposed for 24 hours, relative to 0.1% DMSO vehicle control
Procedure: MATERIALS: In Situ Cell Death Detection Kit, Fluorescein (Roche).
METHODS: DNA fragmentation of apoptotic cells was monitored by the TUNEL assay as described by the supplier. Briefly, LNCaP cells were plated at 2×10^5 cells/well in 2-well chamber slides and incubated at 37° C., 5% CO2 for 24 h to allow the cells sufficient time to attach and be in log phase growth at the start of the experiment. The media was aspirated and replaced with media containing vehicle control (DMSO) or drug dissolved in DMSO. The total volume of DMSO/drug added to each well was equal to 0.1% of the media volume in each well. LNCaP cells were treated with vehicle control, and increasing concentrations of Compound A and Compound B ([…]) for 24-48 h. Two wells were treated with the same concentration of the drugs or DMSO for each treatment condition listed above. The media was collected along with the trypsinized cells and centrifuged at 150 ×g for 4 min. The cells were resuspended in 50 μl PBS, pipetted onto poly-lysine coated slides, and then fixed in 4% methanol-free formaldehyde in PBS (H 7.4) for 25 min at 4° C. Cells were permeabilized in 0.2% Triton X-100 in PBS for 5 min at room temperature. […] Green and red fluorescence emissions were observed microscopically using 520 nm and >620 nm filters, respectively.

LNCaP cells [3] = experiment: Growth curve (trypan blue cell count, 120 h); assay type: cell-based, human
Procedure: as §5, §6

[4] = sulforhodamine B assay, 4 or 6 days treatment
[5] = sulforhodamine B assay, 4 days treatment

## C[C@](O)(COc1ccc(NC(=O)C(F)(F)F)cc1)C(=O)Nc1ccc([N+](=O)[O-])c(C(F)(F)F)c1
other
  melting point: 58 to 60 °C

## O=c1[nH]cc(F)c(=O)[nH]1 [Compound 5-FU, fluorouracil, reference compound]
LNCaP; [4]
  IC50: 900 ± 300 nM
TSU; [5]
  IC50: 2900 ± 900 nM
PC-3; [5]
  IC50: 12100 ± 900 nM
DU145; [5]
  IC50: 2600 ± 900 nM
PPC-1; [5]
  IC50: 5500 ± 300 nM

## C[C@](O)(COc1ccc(NC(=O)CCl)cc1)C(=O)Nc1ccc([N+](=O)[O-])c(C(F)(F)F)c1 [Compound B]
[1]
  IC50 values in inhibiting the growth of all of five prostate cancer cell lines: low micro-molar range
  IC50s from one-day treatment versus 4 or 6 days treatment: did not show significant difference
MCF-7 cells
  Concentration at which MCF-7 cells are sensitive: > 5 µM
LNCaP cells [2]
  Apoptosis (green fluorescence, fragmented DNA) in TUNEL assay: similar
LNCaP; [4]
  IC50: 4400 ± 800 nM
TSU; [5]
  IC50: 1400 ± 400 nM
PC-3; [5]
  IC50: 4200 ± 200 nM
DU145; [5]
  IC50: 900 ± 100 nM
PPC-1; [5]
  IC50: 1800 ± 100 nM
LNCaP cells [3]; growth curve, FIG. 2B
  Sensitivity of LNCaP cells relative to PC-3 or CV-1 cells: approximately 10 fold

## C[C@](O)(COc1ccc(N2C(=O)C=CC2=O)cc1)C(=O)Nc1ccc([N+](=O)[O-])c(C(F)(F)F)c1 (hydrate or solvate)
other
  melting point: 82 to 84 °C

## C[C@](O)(COc1ccc(NC(=O)CBr)cc1)C(=O)Nc1ccc([N+](=O)[O-])c(C(F)(F)F)c1 [Compound A]
[1]
  IC50 values in inhibiting the growth of all of five prostate cancer cell lines: low micro-molar range
  IC50s from one-day treatment versus 4 or 6 days treatment: did not show significant difference
LNCaP cells [2]
  Apoptosis (green fluorescence, fragmented DNA) in TUNEL assay: exhibit green fluorescence
LNCaP; [4]
  IC50: 1100 ± 200 nM
TSU; [5]
  IC50: 400 ± 300 nM
PC-3; [5]
  IC50: 2410 ± 600 nM
DU145; [5]
  IC50: 1300 ± 300 nM
PPC-1; [5]
  IC50: 1100 ± 100 nM
LNCaP cells [3]; LNCaP versus PC-3, MCF-7 and CV-1 cells, FIG. 2A
  Growth inhibitory activity across cell lines (selectivity): non-selective growth inhibitory activity

## N[C@@H](Cc1ccc(N(CCCl)CCCl)cc1)C(=O)O [Melphalan, reference compound]
LNCaP
  IC50: 10300 ± 100 nM
TSU
  IC50: 4000 ± 200 nM
PC-3
  IC50: 30400 ± 3100 nM
DU145
  IC50: 31000 ± 4800 nM
PPC-1
  IC50: 16200 ± 1800 nM

## C[C@](O)(COc1ccc(NC(=O)CI)cc1)C(=O)Nc1ccc(C#N)c(C(F)(F)F)c1 (hydrate or solvate)
other
  melting point: 78 to 80 °C

## C[C@](O)(COc1ccc(NC(=O)C(Cl)(Cl)Cl)cc1)C(=O)Nc1ccc([N+](=O)[O-])c(C(F)(F)F)c1 (hydrate or solvate)
other
  melting point: 59 to 61 °C
